Data as given in PubChem BioAssay AID826 (PCMD, 2007).
The source made the active and inactive calls. The rule behind the calls is not given here. Where a SMILES comes first, the peptide text is derived from it. The star is where a group is joined. Boc = CC(C)(C)OC(=O)*

biological target: DNA-directed RNA polymerase subunit beta (Escherichia coli (strain K12)) (UniProt P0A8V2); test: E. coli RNAP inhibitors, dose response, biochemical, confirmation (AID 826); details: E. coli RNA polymerase biochemical transcription assay
Sequence (P0A8V2 whole entry, looked up): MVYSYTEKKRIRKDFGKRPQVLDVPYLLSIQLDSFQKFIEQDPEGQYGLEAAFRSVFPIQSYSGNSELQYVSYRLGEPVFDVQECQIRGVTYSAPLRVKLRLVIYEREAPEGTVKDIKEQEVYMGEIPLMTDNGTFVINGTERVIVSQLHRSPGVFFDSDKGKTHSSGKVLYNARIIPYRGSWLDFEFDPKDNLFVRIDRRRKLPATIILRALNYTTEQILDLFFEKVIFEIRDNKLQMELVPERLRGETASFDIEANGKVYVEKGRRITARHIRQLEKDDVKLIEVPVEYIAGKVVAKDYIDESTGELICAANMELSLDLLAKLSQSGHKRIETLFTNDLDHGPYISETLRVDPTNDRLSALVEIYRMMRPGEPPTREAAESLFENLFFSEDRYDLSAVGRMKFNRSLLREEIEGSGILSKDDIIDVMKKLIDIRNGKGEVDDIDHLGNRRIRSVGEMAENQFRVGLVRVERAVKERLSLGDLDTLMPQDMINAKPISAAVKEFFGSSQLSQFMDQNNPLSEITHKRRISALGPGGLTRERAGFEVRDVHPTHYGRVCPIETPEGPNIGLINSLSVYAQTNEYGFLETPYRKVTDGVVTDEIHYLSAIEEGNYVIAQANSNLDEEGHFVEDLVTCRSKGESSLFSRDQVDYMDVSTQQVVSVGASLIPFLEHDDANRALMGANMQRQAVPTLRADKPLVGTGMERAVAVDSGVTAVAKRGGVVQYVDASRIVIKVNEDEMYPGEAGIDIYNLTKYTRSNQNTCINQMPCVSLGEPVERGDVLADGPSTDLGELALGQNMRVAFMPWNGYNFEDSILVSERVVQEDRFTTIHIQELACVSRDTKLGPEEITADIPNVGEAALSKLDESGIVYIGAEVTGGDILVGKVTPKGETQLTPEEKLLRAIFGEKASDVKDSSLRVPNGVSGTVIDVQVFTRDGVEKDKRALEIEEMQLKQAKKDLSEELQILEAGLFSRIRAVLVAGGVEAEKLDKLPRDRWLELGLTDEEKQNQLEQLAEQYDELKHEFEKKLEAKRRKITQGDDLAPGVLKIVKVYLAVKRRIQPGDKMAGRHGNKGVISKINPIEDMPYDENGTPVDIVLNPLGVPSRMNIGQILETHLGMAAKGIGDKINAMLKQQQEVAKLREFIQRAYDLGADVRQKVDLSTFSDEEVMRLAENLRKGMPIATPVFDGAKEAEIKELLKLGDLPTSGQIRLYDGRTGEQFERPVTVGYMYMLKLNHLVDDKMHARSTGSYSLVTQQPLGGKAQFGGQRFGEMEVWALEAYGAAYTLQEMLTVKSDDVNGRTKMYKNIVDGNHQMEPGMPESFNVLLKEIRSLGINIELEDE

| SMILES | IC50 |
| --- | --- |
| O=C1N(O)C2(C=CCCC2)/C(=N\O)C12CCCCC2 (configuration not stated) | > 50 µM (inactive) |
| COc1ccc(C2=NO[C@@H]3C(=O)N(c4c(C)cccc4C)C(=O)[C@H]23)cc1OC | > 50 µM (inactive) |
| CC(=O)C1=C(C)Nc2cc(C(F)(F)F)ccc2S1 | > 50 µM (inactive) |
| COCCN1C(=O)C(O)=C(C(C)=O)C1c1ccc(OC)c(OC)c1 (configuration not stated) | > 50 µM (inactive) |
| CCOC(=O)C1=C(c2ccccc2)OC(N)=C(C#N)C1C(C)C (configuration not stated) | > 50 µM (inactive) |
| CC(C)(C)OC(=O)N1CCCC1C(=O)N1CCCC1C(=O)N1CCCC1C(=O)O (stereo not drawn) (Boc-Pro-Pro-Pro-OH; configuration not given here) | > 50 µM (inactive) |
| CCCCn1c(O)c(C(CC)=NCCCN(C)C)c(=O)[nH]c1=O | > 50 µM (inactive) |
